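96-well plates; 48 h exposure; 5 concentrations. Endpoints by linear interpolation between flanking doses. Not reached: highest tested concentration assigned. GI50 = concentration required for 50% inhibition of growth.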 The source made the active and inactive calls. Cut-off read from the data, not from the text of the source: active = GI50 up to about 1.1 µM and inactive = higher. A value given as a limit tells only on which side of the number the result lay.

Some test systems named below: SF-539; OVCAR-3; NCI-H226; RPMI-8226; NCI-H522; UO-31; NCI-H460; SR; HL-60; UACC-62; A498; SK-MEL-5; OVCAR-8; SN12C; HT-29; SK-MEL-2; OVCAR-4; MDA-MB-231; MDA-N; PC-3.
Assay in all cases: growth of human tumour cells (NCI), 48 h

Turning to `O=C(CNC(=O)OCc1ccccc1)Oc1ccccc1`, the GI50 in the assay on SF-539, in the assay on OVCAR-3, in the assay on NCI-H226, with RPMI-8226, with NCI-H522 and in the assay with UO-31 was > 100 µM (inactive) each time. Further, the GI50 in the assay on NCI-H460, with SR, in the assay with HL-60, with UACC-62, in the assay on A498 and in the assay with SK-MEL-5 was > 100 µM (inactive) throughout. Moreover, the GI50 in the assay on OVCAR-8, with SN12C, in the assay on HT-29, in the assay on SK-MEL-2 and in the assay on OVCAR-4 was > 100 µM (inactive) each time.

For `CCOC(=O)c1cc(-c2ccc([N+](=O)[O-])cc2)c([N+](=O)[O-])[nH]1`, the GI50 with SF-539 is > 10 µM (inactive); in the assay with OVCAR-3 it was 2.7 µM (inactive); with MDA-MB-231, 0.37 µM (active); with NCI-H226, 1.46 µM (inactive); in the assay with NCI-H522 it was 3.33 µM (inactive); with UO-31 it was 2.42 µM (inactive). Also, the GI50 with NCI-H460 is 2.26 µM (inactive); with SR it was 1.76 µM (inactive); with UACC-62, 3.03 µM (inactive); with OVCAR-8 it was 4.24 µM (inactive); in the assay with SN12C it was > 10 µM (inactive); with HT-29 it was 2.69 µM (inactive). In addition, the figures for the GI50 with SK-MEL-2 and with OVCAR-4 were 2.72 µM (inactive) and 4.23 µM (inactive), respectively.

For the compound `COC(=O)C12OCC34C(CC5C(C)C6=CC(=O)OC6=CC5(C)C3C(O)C1O)OC(=O)C(OC(C)=O)C24` (centres undefined), the GI50 was 15.2 µM (inactive) in the assay with SF-539; 14.3 µM (inactive) with OVCAR-3; 24.8 µM (inactive) with NCI-H226; 12.1 µM (inactive) in the assay on RPMI-8226; 8.91 µM (inactive) in the assay on NCI-H522; 24.4 µM (inactive) in the assay on UO-31. For the same compound, the GI50 is 21.3 µM (inactive) with NCI-H460; 18.3 µM (inactive) with SR; 12.1 µM (inactive) in the assay with HL-60; 12.9 µM (inactive) in the assay on UACC-62; 21.2 µM (inactive) in the assay on A498; 15.3 µM (inactive) in the assay with SK-MEL-5. In addition, the GI50 was 16.3 µM (inactive) with OVCAR-8; 17.1 µM (inactive) with SN12C; 16.3 µM (inactive) in the assay with HT-29; 10.1 µM (inactive) with SK-MEL-2; 18.1 µM (inactive) in the assay with OVCAR-4.

Take `COc1cccc(C=C(C#N)C#N)c1OC`: the GI50 with SF-539 is > 100 µM (inactive); in the assay with OVCAR-3 it was > 100 µM (inactive); with NCI-H226, > 100 µM (inactive); with RPMI-8226, 43.5 µM (inactive); in the assay with NCI-H522, > 100 µM (inactive); in the assay on UO-31 it was > 100 µM (inactive). Also, the GI50 in the assay with MDA-N is > 100 µM (inactive); in the assay with NCI-H460 it was > 100 µM (inactive); in the assay on SR it was > 100 µM (inactive); with HL-60 it was 85.9 µM (inactive); in the assay on UACC-62 it was > 100 µM (inactive); with PC-3, > 100 µM (inactive). Further, the GI50 with SK-MEL-5, with OVCAR-8, with SN12C, with HT-29 and in the assay on OVCAR-4 was > 100 µM (inactive) throughout.

In the case of `C(=C\c1ccco1)/c1cccc(/C=C/c2ccco2)n1`, the GI50 in the assay on SF-539, with OVCAR-3, in the assay on NCI-H226, with RPMI-8226, in the assay on NCI-H522 and in the assay on UO-31 was > 50 µM (inactive) throughout. In addition, the GI50 was > 50 µM (inactive) in the assay on MDA-N; > 50 µM (inactive) in the assay on NCI-H460; 33.6 µM (inactive) in the assay on SR; > 50 µM (inactive) with HL-60; > 50 µM (inactive) in the assay on UACC-62; > 50 µM (inactive) in the assay with A498. In addition, the GI50 in the assay with SK-MEL-5, in the assay with OVCAR-8, with SN12C, in the assay with HT-29 and in the assay with OVCAR-4 was > 50 µM (inactive) in each case.

For `CC[N+](C)(C)c1ccc(C(=C2C=CC(=[N+](C)C)C=C2)c2ccc(N(C)C)cc2)cc1`, the GI50 was 12.8 µM (inactive) in the assay on SF-539; 10.5 µM (inactive) with OVCAR-3; 19.7 µM (inactive) with NCI-H226; 2.19 µM (inactive) in the assay on RPMI-8226; 2.79 µM (inactive) in the assay on NCI-H522; 27.5 µM (inactive) in the assay with UO-31. For the same compound, the GI50 with NCI-H460 is 5.74 µM (inactive); in the assay with SR, 10.6 µM (inactive); in the assay on HL-60 it was 2.4 µM (inactive); in the assay with UACC-62, 6.55 µM (inactive); in the assay on A498, 15.9 µM (inactive); in the assay with SK-MEL-5 it was 13.4 µM (inactive). Moreover, the GI50 was 12.8 µM (inactive) with OVCAR-8; 4.39 µM (inactive) in the assay on SN12C; 4.93 µM (inactive) with HT-29; 21.1 µM (inactive) in the assay on SK-MEL-2; 15.1 µM (inactive) with OVCAR-4.

As for `CCOC(=O)/C(=C\NC(C)(C)C)c1nc2ccccc2o1`, the GI50 with SF-539 is 47.4 µM (inactive); with OVCAR-3, 35.4 µM (inactive); in the assay on NCI-H226 it was 20.9 µM (inactive); in the assay with RPMI-8226, 22.2 µM (inactive); in the assay with NCI-H522 it was 29.6 µM (inactive); in the assay with UO-31, 0.124 µM (active). The GI50 in the assay with MDA-N is 32 µM (inactive); with NCI-H460, 25.7 µM (inactive); with SR, 25.6 µM (inactive); in the assay with HL-60, 2.42 µM (inactive); in the assay with UACC-62, 18.4 µM (inactive); in the assay on A498 it was 27.9 µM (inactive). Moreover, the GI50 is 12.8 µM (inactive) in the assay with SK-MEL-5; 39 µM (inactive) in the assay with OVCAR-8; 50.1 µM (inactive) in the assay with SN12C; 27.7 µM (inactive) with HT-29; 31.4 µM (inactive) with OVCAR-4.

`Cc1cc(Cl)ccc1N1C(=O)C(=O)C(c2nc3ccccc3s2)C(=O)C1=O`: the GI50 in the assay with SF-539, in the assay on OVCAR-3, with NCI-H226, in the assay with RPMI-8226, in the assay on NCI-H522 and with UO-31 was > 100 µM (inactive) throughout. In addition, the GI50 with NCI-H460, in the assay with SR, with HL-60, in the assay with UACC-62, with A498 and in the assay with SK-MEL-5 was > 100 µM (inactive) in each case. The GI50 with OVCAR-8, in the assay with SN12C, with HT-29, in the assay on SK-MEL-2 and in the assay on OVCAR-4 was > 100 µM (inactive) each time.

Regarding `CC(=O)OC(/C=C/c1ccccc1)=C(OC(C)C)/C1=C(\c2ccccc2)SCCCSC1=O`, the GI50 in the assay with SF-539 is > 100 µM (inactive); with OVCAR-3 it was > 100 µM (inactive); with MDA-MB-231 it was > 100 µM (inactive); with NCI-H226 it was > 100 µM (inactive); in the assay with RPMI-8226 it was 35.6 µM (inactive); in the assay with UO-31 it was > 100 µM (inactive). In addition, the GI50 with NCI-H460 is > 100 µM (inactive); with HL-60, 49.8 µM (inactive); in the assay with UACC-62 it was 63 µM (inactive); with PC-3, > 100 µM (inactive); in the assay on A498, > 100 µM (inactive); in the assay with SK-MEL-5, > 100 µM (inactive). The GI50 in the assay on OVCAR-8 was > 100 µM (inactive); with HT-29, > 100 µM (inactive); with SK-MEL-2, > 100 µM (inactive); in the assay on OVCAR-4, 83.4 µM (inactive).

Take `O=S1(=O)CCCS(=O)(=O)C(c2ccccc2)=C1c1ccccc1`: the GI50 is > 100 µM (inactive) with SF-539; 36.6 µM (inactive) in the assay on OVCAR-3; 56.5 µM (inactive) with NCI-H226; 41 µM (inactive) in the assay with RPMI-8226; 27.5 µM (inactive) in the assay on NCI-H522; > 100 µM (inactive) in the assay with UO-31. Besides, the GI50 in the assay on NCI-H460 is 47.3 µM (inactive); in the assay with SR, 31.6 µM (inactive); with HL-60 it was 18.6 µM (inactive); in the assay with UACC-62, 29 µM (inactive); in the assay on A498, > 100 µM (inactive); in the assay on SK-MEL-5, 52.8 µM (inactive). Besides, the GI50 was 91.6 µM (inactive) in the assay on OVCAR-8; 29.4 µM (inactive) in the assay on SN12C; 64 µM (inactive) with HT-29; 42.6 µM (inactive) in the assay on SK-MEL-2; 23.3 µM (inactive) with OVCAR-4.

For `O=C(Nc1ccccc1F)c1cc2ccc(O)cc2o/c1=N\c1ccccc1F`, the GI50 with SF-539 was 3.33 µM (inactive); in the assay on OVCAR-3 it was 2.1 µM (inactive); in the assay with RPMI-8226 it was 2.04 µM (inactive); with NCI-H522, 1.44 µM (inactive); in the assay with UO-31, 1.93 µM (inactive); in the assay with MDA-N it was 2.29 µM (inactive). Moreover, the GI50 was 2.25 µM (inactive) in the assay with NCI-H460; 1.87 µM (inactive) in the assay on SR; 2.09 µM (inactive) in the assay with HL-60; 2.37 µM (inactive) with UACC-62; 2.58 µM (inactive) with PC-3; 1.77 µM (inactive) in the assay on SK-MEL-5. Besides, the GI50 was 1.77 µM (inactive) with OVCAR-8, 17.2 µM (inactive) in the assay with HT-29, 1.84 µM (inactive) in the assay with SK-MEL-2 and 1.85 µM (inactive) in the assay on OVCAR-4.

For `COc1cc(-c2cc(CCC(=O)Nc3ccccc3[N+](=O)[O-])n(-c3ccc([N+](=O)[O-])cc3[N+](=O)[O-])n2)ccc1O`, the GI50 in the assay with SF-539, in the assay on OVCAR-3, in the assay with NCI-H226, in the assay on RPMI-8226, in the assay on NCI-H522 and with UO-31 was > 10 µM (inactive) each time. Also, the GI50 in the assay on NCI-H460 is > 10 µM (inactive); in the assay on SR, > 10 µM (inactive); in the assay on HL-60 it was > 10 µM (inactive); with UACC-62, 38.4 µM (inactive); with A498, > 10 µM (inactive); in the assay on SK-MEL-5, > 10 µM (inactive). The GI50 with OVCAR-8, in the assay with SN12C, in the assay with HT-29, in the assay on SK-MEL-2 and with OVCAR-4 was > 10 µM (inactive) each time.
